Laboratory results published in publication PMC11336141.
Entries after “also recorded” stand apart in the source; their conditions may differ. Bridge positions count the residues as written; N and C are the ends. Square brackets hold non-standard residues; d marks the D form. Peptide text beside a SMILES is read from it.

Tests used:
Dr-sstr2a = test: PRESTO-Tango β-arrestin recruitment assay, Dr-sstr2a; assay type: cell-based, zebrafish (Danio rerio); conditions: HTLA cells, listed as Consomatin pG1
Excerpt: (§1) 3xHA-tagged human SSTR2 construct was obtained from cDNA.org (cDNA resource center, Bloomsburg PA, US). […] Kirill Martemyanov (University of Florida, US). Tango constructs for human SSTR1-5 were kind gifts from Prof. Bryan Roth (University of North Carolina, Chapel Hill, US) (Addgene kit # 1000000068). Tango constructs for fish Dr-sstr2a (sequence accession number: XP_005170178.1) and Dr-sstr2b (sequence accession number: XP_017210358.1) were custom-synthesized by Twist Biosciences using the Tango construct template as described in Kroeze et al., 2015[28]. 3xHA-tagged Dr-sstr2a and 3xHA tagged Dr-sstr2b constructs were inserted into pcDNA3.1 backbone. All DNA constructs were sequenced and confirmed prior to use.
The assay was done as described in ref. [12].

human SSTR2 (Gi2) = target: T1, human SSTR2 (Gi2) (Homo sapiens, UniProt P30874); test: G protein activation (BRET dissociation) assay, Gi2 at hSSTR2; assay type: cell-based;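 as to Emax ± S.E.M.: percent of the maximal response to the reference somatostatin agonist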
T1 construct: host or cells: HEK293T cells
Procedure: (§6) HEK293T cells were seeded onto 6-well plates at a density of 750,000 cells/well. […] 16 to 24 hours post-transfection, HEK293T cells were seeded onto white 96 well plate (PerkinElmer) coated with poly-L-lysine (PLL) at a density of 40,000 cells/well and were allowed to grow overnight. On the day of assay, cells were washed once with phosphate-based saline (PBS) and 80 µL of assay buffer which composed of PBS with 0.5 mM MgCl2 and 0.1% glucose, pH 7.4, were added onto each well. 10 µL of Nluc luciferase substrate furimazine (Promega) were added onto each well and incubated for 3 minutes.
(§7) The net BRET ratio was determined by subtracting the BRET ratio of drugs with the BRET ratio of vehicle control. Net BRET ratio over time was then plotted using GraphPad Prism (v.9.4.1), and the area-under-curve of net BRET ratio over time course for each ligand concentration tested were then determined and plotted against log(concentration) of drugs tested. […] Concentration response curves were fitted with a 4-parameter logistic Eq. (1) using GraphPad Prism (v.9.4.1):1 Y=Emin+(Emax−Emin)/1+10^logEC50−X×Hillslope

human SSTR2 (Gi3) = target: T2, human SSTR2 (Gi3) (Homo sapiens, UniProt P30874); test: G protein activation (BRET dissociation) assay, Gi3 at hSSTR2; assay type: cell-based;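 as to Emax ± S.E.M.: percent of the maximal response to the reference somatostatin agonist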
T2 construct: host or cells: HEK293T cells
Procedure: as §6, §7

human SSTR2 (GoB) = target: T3, human SSTR2 (GoB) (Homo sapiens, UniProt P30874); test: G protein activation (BRET dissociation) assay, GoB at hSSTR2; assay type: cell-based;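 as to Emax ± S.E.M.: percent of the maximal response to the reference somatostatin agonist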
T3 construct: host or cells: HEK293T cells
Procedure: as §6, §7

Dr-sstr2a (GoA) = test: G protein dissociation assay, GoA at Dr-sstr2a; assay type: cell-based, zebrafish (Danio rerio); conditions: HEK293T cells
Excerpt: as §1
(§2) Error bars represent means ± S.E.M. of n = 3 in technical duplicates.

Dr-sstr2b (GoA) = test: G protein dissociation assay, GoA at Dr-sstr2b; assay type: cell-based, zebrafish (Danio rerio)
Excerpt: as §1, §2

isolated mouse islets = test: Glucagon secretion from isolated islets; assay type: cell-based, mouse (C57BL/6J); conditions: for Islet glucagon secretion: -9 log M peptide
Procedure: Female C57BL/6 J mice of 12–20 weeks were used for the islet secretion. Mice were killed by cervical dislocation and pancreatic islets were isolated as previously described. […] The islets were subsequently incubated with or without drugs in 10 mM glucose KRB for an hour. Supernatant from both incubations were collected. Total islet glucagon content was determined by acid-ethanol extraction. Both the supernatant and the acid-ethanol content were stored at −80 °C until further analysis. Glucagon in both supernatant and content were measured using U-plex metabolic 2-plex combo (mouse insulin and glucagon) kit (Meso Scale Diagnostic; catalog no: K15303K) according to manufacturer’s instruction.
(§3) Data analysis were performed in GraphPad Prism (v.9.4.1). Statistical analysis were performed using two-way repeated measure analysis of variance (ANOVA) with Šidák test for isolated islets glucagon secretion and one-way repeated measure ANOVA with Dunnett's test for rat pancreas perfusion experiments. Statistical significance was taken as p < 0.05.

perfused rat pancreas [1] = test: Rat pancreas perfusion, glucagon output; parameters: species or system rat (Wistar)
Procedure: (§4) Non-fasted rats were anesthetized by a subcutaneous injection of a balanced mix of hypnorm and midazolam (0.3 mL/100 g body weight). Rats were placed on a heated operating table (37 °C) and the abdomen were opened. Blood vessels were tied off before removing the large and small intestines, the stomach, and the spleen. Then, the kidneys were ligated. […] The perfusion buffer was a modified Krebs-Ringer bicarbonate buffer with 5% (w/v) dextran T-70 (Pharmacosmos, Holbaek, Denmark), 0.1% (w/v) BSA (fraction V), 3.5 mM glucose and 3 mM vamin (Fresenius Kabi, Copenhagen, Denmark), pH adjusted to 7.4. […] Once perfusion of the pancreas was established, a catheter was inserted in the vena portae to collect the venous effluent and the rat was sacrificed by perforation of the diaphragm. After a 30-minute equilibration period, samples were collected every minute for the duration of the protocol. […] 10 mM L-Arginine was used as a positive control. Collected samples were immediately transferred on ice and stored at −20 °C until hormone analysis. Glucagon, insulin, and somatostatin concentrations in venous effluents were quantified by use of validated in-house radioimmunoassays (RIA) as previously described[36] (see below). Statistical analysis were performed where appropriate using one-way analysis of variance (ANOVA) with Dunnett’s post-test. Statistical significance was taken as p < 0.05.
(§5) Glucagon concentration in perfusion samples were measured by a validated in-house RIAs using the 4305 antibody, which reacts with the C-terminal epitope of glucagon[36] and no other cleavage products of pro-glucagon. Insulin concentrations were measured with the 2006 antibody, which measures all isoforms of rat insulin. […] Assay sensitivity was <1 pmol/L ( < 5 pmol/L for insulin detection), allowing reliable measurements of increments of at least 25 fmol/min.
as §3

perfused rat pancreas [2] = test: Rat pancreas perfusion, insulin output; parameters: species or system rat (Wistar); conditions: for effect on insulin secretion: 0.1 nM, 1 nM and 10 nM, […] glucose, n = 5 rats; for Insulin output: Mean
Procedure: as §4, §5, §3

perfused rat pancreas [3] = test: Rat pancreas perfusion, somatostatin output; parameters: species or system rat (Wistar); conditions: 0.1 nM, 1 nM and 10 nM, […] glucose, n = 10 rats
Procedure: Non-fasted rats were anesthetized by a subcutaneous injection of a balanced mix of hypnorm and midazolam (0.3 mL/100 g body weight). Rats were placed on a heated operating table (37 °C) and the abdomen were opened. Blood vessels were tied off before removing the large and small intestines, the stomach, and the spleen. Then, the kidneys were ligated. […] The perfusion buffer was a modified Krebs-Ringer bicarbonate buffer with 5% (w/v) dextran T-70 (Pharmacosmos, Holbaek, Denmark), 0.1% (w/v) BSA (fraction V), 3.5 mM glucose and 3 mM vamin (Fresenius Kabi, Copenhagen, Denmark), pH adjusted to 7.4. […] Once perfusion of the pancreas was established, a catheter was inserted in the vena portae to collect the venous effluent and the rat was sacrificed by perforation of the diaphragm. After a 30-minute equilibration period, samples were collected every minute for the duration of the protocol. […] Glucagon, insulin, and somatostatin concentrations in venous effluents were quantified by use of validated in-house radioimmunoassays (RIA) as previously described[36] […]
Glucagon concentration in perfusion samples were measured by a validated in-house RIAs using the 4305 antibody, which reacts with the C-terminal epitope of glucagon[36] and no other cleavage products of pro-glucagon. Insulin concentrations were measured with the 2006 antibody, which measures all isoforms of rat insulin. […]

T1 sequence (P30874 whole entry): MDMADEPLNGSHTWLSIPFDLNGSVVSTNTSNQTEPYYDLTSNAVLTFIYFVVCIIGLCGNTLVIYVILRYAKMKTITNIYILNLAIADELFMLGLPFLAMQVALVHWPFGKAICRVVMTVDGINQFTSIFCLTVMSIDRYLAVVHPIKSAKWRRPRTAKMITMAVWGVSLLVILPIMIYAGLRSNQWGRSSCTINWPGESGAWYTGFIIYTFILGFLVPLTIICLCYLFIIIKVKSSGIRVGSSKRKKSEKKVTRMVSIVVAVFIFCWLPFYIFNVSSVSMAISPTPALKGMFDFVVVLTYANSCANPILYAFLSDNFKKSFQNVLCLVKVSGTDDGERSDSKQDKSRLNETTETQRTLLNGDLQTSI
T3 sequence (P30874 whole entry): as above
T2 sequence (P30874 whole entry): as above

Question: For `CC(C)C[C@H](N)C(=O)N[C@@H](Cc1ccccc1)C(=O)N[C@H]1CSSC[C@@H](C(=O)N[C@@H](Cc2c[nH]c3ccccc23)C(=O)O)NC(=O)[C@H](CO)NC(=O)[C@H](CCCCN)NC(=O)[C@@H](Cc2c[nH]c3ccccc23)NC(=O)[C@H](Cc2ccccc2)NC1=O` [pG1] (H-LFCF[dW]KSCW-OH; disulfide 3-8), which “activation of Dr-sstr2a in words” value (Dr-sstr2a) is on record?
Answer: very low potency; also recorded: activates the zebrafish Dr-sstr2b (n = 3) but not Dr-sstr2a

Question: What about the Emax (human SSTR2 (Gi2)) of the same compound?
Answer: 91 ± 4.6%

Question: What about the “Hill Slope” value (human SSTR2 (Gi2); Table S2, Gαi2) of the same compound?
Answer: 1.11 ± 0.22

Question: What about the “Span ± S.E.M.” value (human SSTR2 (Gi2); Table S2, Gαi2) of the same compound?
Answer: 83.42 ± 5.67

Question: And the EC50 (human SSTR2 (Gi2); Table S2, Gαi2, HEK293T, means ± S.E.M.)?
Answer: 1.35 nM

Question: And the Emax (human SSTR2 (Gi3))?
Answer: 75.2 ± 7.38%

Question: And the “Hill Slope” value (human SSTR2 (Gi3); Table S2, Gαi3)?
Answer: 0.70 ± 0.18

Question: What about the “Span ± S.E.M.” value (human SSTR2 (Gi3); Table S2, Gαi3) of the same compound?
Answer: 75.57 ± 8.97

Question: What about the Emax (human SSTR2 (GoB)) of the same compound?
Answer: 76.7 ± 3.62%

Question: And the “Hill Slope” value (human SSTR2 (GoB); Table S2, GαoB)?
Answer: 1.46 ± 0.41

Question: What about the “Span ± S.E.M.” value (human SSTR2 (GoB); Table S2, GαoB) of the same compound?
Answer: 76.77 ± 4.97

Question: What about the EC50 (human SSTR2 (GoB); Table S2, GαoB, HEK293T, means ± S.E.M.) of the same compound?
Answer: 8.32 nM

Question: And the “GoA dissociation at Dr-sstr2a in words” value (Dr-sstr2a (GoA))?
Answer: only induced GoA dissociation at the Dr-sstr2b but not the Dr-sstr2a

Question: And the “GoA dissociation at Dr-sstr2b in words” value (Dr-sstr2b (GoA); HEK293T cells)?
Answer: only induced GoA dissociation at the Dr-sstr2b but not the Dr-sstr2a

Question: What about the “Hill Slope” value (Dr-sstr2b (GoA); Table S5, GoA) of the same compound?
Answer: 0.48 ± 0.10

Question: And the “Span ± S.E.M.” value (Dr-sstr2b (GoA); Table S5, GoA)?
Answer: 100.43 ± 11.98

Question: And the “Emax ± S.E.M.” value (Dr-sstr2b (GoA); Table S5, GoA, % of maximal response relative to SS-14)?
Answer: 105.52 ± 10.37%

Question: And the “pEC50 ± S.E.M.” value (Dr-sstr2b (GoA); Table S5, GoA, HEK293T)?
Answer: 7.95 ± 0.19

Question: And the “decrease of glucagon secretion” value (isolated mouse islets; 1 nM peptide, 1 mM glucose, 1 hour, p < 0.01, n = 9)?
Answer: ~ 33%

Question: And the “effect on glucagon secretion in high glucose” value (isolated mouse islets; 1 nM peptide, 10 mM glucose)?
Answer: Neither SS-14 nor Consomatin pG1 affected glucagon secretion in high glucose conditions

Question: What about the Islet glucagon secretion (isolated mouse islets; 1mM glucose, replicate 1) of the same compound?
Answer: 0.1528

Question: And the Islet glucagon secretion (isolated mouse islets; 1mM glucose, replicate 2)?
Answer: 0.1799

Question: And the Islet glucagon secretion (isolated mouse islets; 1mM glucose, replicate 3)?
Answer: 0.229

Question: And the Islet glucagon secretion (isolated mouse islets; 1mM glucose, replicate 4)?
Answer: 0.1754

Question: What about the Islet glucagon secretion (isolated mouse islets; 1mM glucose, replicate 5) of the same compound?
Answer: 0.2817

Question: What about the Islet glucagon secretion (isolated mouse islets; 1mM glucose, replicate 6) of the same compound?
Answer: 0.2671

Question: What about the Islet glucagon secretion (isolated mouse islets; 1mM glucose, replicate 7) of the same compound?
Answer: 0.309

Question: What about the Islet glucagon secretion (isolated mouse islets; 1mM glucose, replicate 8) of the same compound?
Answer: 0.2377

Question: What about the Islet glucagon secretion (isolated mouse islets; 1mM glucose, replicate 9) of the same compound?
Answer: 0.1574

Question: What about the Islet glucagon secretion (isolated mouse islets; 10mM glucose, replicate 1) of the same compound?
Answer: 0.1057

Question: What about the Islet glucagon secretion (isolated mouse islets; 10mM glucose, replicate 2) of the same compound?
Answer: 0.1136

Question: What about the Islet glucagon secretion (isolated mouse islets; 10mM glucose, replicate 3) of the same compound?
Answer: 0.1366

Question: And the Islet glucagon secretion (isolated mouse islets; 10mM glucose, replicate 4)?
Answer: 0.1392

Question: What about the Islet glucagon secretion (isolated mouse islets; 10mM glucose, replicate 5) of the same compound?
Answer: 0.1398

Question: What about the Islet glucagon secretion (isolated mouse islets; 10mM glucose, replicate 6) of the same compound?
Answer: 0.1241

Question: And the Islet glucagon secretion (isolated mouse islets; 10mM glucose, replicate 7)?
Answer: 0.1488

Question: And the Islet glucagon secretion (isolated mouse islets; 10mM glucose, replicate 8)?
Answer: 0.2037

Question: What about the Islet glucagon secretion (isolated mouse islets; 10mM glucose, replicate 9) of the same compound?
Answer: 0.1689

Question: What about the “suppression of glucagon secretion” value (perfused rat pancreas [1]; 0.1 nM, within 5 minute of application, […] glucose, n = 10 rats) of the same compound?
Answer: 24%

Question: And the “further suppression of glucagon secretion” value (perfused rat pancreas [1]; 1 nM, subsequent application, […] glucose, n = 10 rats)?
Answer: 45%

Question: What about the “glucagon level in words” value (perfused rat pancreas [1]; 10 nM, […] glucose) of the same compound?
Answer: drastically reduced the glucagon level close to null

Question: What about the “recovery of glucagon level after washout” value (perfused rat pancreas [1]; after 0.1 nM, 15-minute washout, baseline 754.9 fmol/min) of the same compound?
Answer: failed to return to the average baseline level

Question: And the “effect on insulin secretion” value (perfused rat pancreas [2])?
Answer: did not affect insulin and somatostatin output at low glucose (3.5 mM)

Question: What about the “effect on insulin secretion” value (perfused rat pancreas [2]; listed as Consomatin pG1) of the same compound?
Answer: no effect on somatostatin or insulin secretion in 3.5 mM glucose

Question: What about the Insulin output (perfused rat pancreas [2]; 0.1nM, replicate 1) of the same compound?
Answer: 35.5

Question: And the Insulin output (perfused rat pancreas [2]; 0.1nM, replicate 2)?
Answer: 10

Question: And the Insulin output (perfused rat pancreas [2]; 0.1nM, replicate 3)?
Answer: 25.5

Question: And the Insulin output (perfused rat pancreas [2]; 0.1nM, replicate 4)?
Answer: 51

Question: What about the Insulin output (perfused rat pancreas [2]; 0.1nM, replicate 5) of the same compound?
Answer: 14

Question: What about the Insulin output (perfused rat pancreas [2]; 1nM, replicate 1) of the same compound?
Answer: 15.5556

Question: And the Insulin output (perfused rat pancreas [2]; 1nM, replicate 2)?
Answer: 29

Question: What about the Insulin output (perfused rat pancreas [2]; 1nM, replicate 3) of the same compound?
Answer: 40

Question: And the Insulin output (perfused rat pancreas [2]; 1nM, replicate 4)?
Answer: 74.5

Question: And the Insulin output (perfused rat pancreas [2]; 1nM, replicate 5)?
Answer: 0

Question: What about the Insulin output (perfused rat pancreas [2]; 10nM, replicate 1) of the same compound?
Answer: 25

Question: And the Insulin output (perfused rat pancreas [2]; 10nM, replicate 2)?
Answer: 0

Question: And the Insulin output (perfused rat pancreas [2]; 10nM, replicate 3)?
Answer: 15

Question: And the Insulin output (perfused rat pancreas [2]; 10nM, replicate 4)?
Answer: 35

Question: And the Insulin output (perfused rat pancreas [2]; 10nM, replicate 5)?
Answer: 11.5

Question: And the “effect on somatostatin secretion” value (perfused rat pancreas [3])?
Answer: did not affect insulin and somatostatin output at low glucose (3.5 mM)

Question: What about the “effect on somatostatin secretion” value (perfused rat pancreas [3]; listed as Consomatin pG1) of the same compound?
Answer: no effect on somatostatin or insulin secretion in 3.5 mM glucose
